For five compounds, Ki results are on record in ChEMBL document CHEMBL1140389, “Synthesis and biological activity of macrocyclic inhibitors of hepatitis C virus (HCV) NS3 protease” (Bioorg Med Chem Lett, 2005).

Starred links: 1 amine or outer side, 2 acyl side, 3 side chain; linkers in the order of their positions; H or OH if unused. Positions of bridges follow the written chain, without caps; N, C: chain ends. Non-standard residues stand in square brackets, D forms with d. Residues, ends and D or L forms follow the SMILES beside them. *: point of attachment. Phe(3-(CH2)7CO) = O=C([C@H](Cc1cccc(CCCCCCCC(=O)[*:3])c1)N[*:1])[*:2]; X1 = CCCC(N[*:1])C(=O)C(=O)[*:2]; Chg = N[C@H](C(=O)O)C1CCCCC1; Phg = N[C@H](C(=O)O)c1ccccc1; OtBu = CC(C)(C)O*

The term Ki denotes a measure of affinity in units of concentration, obtained from inhibition or displacement. A lower Ki goes with tighter binding.

In the experiment the target is NS3 (Hepatitis C virus, UniProt A3EZJ3). The experiment can be described thus: Inhibitory constant against NS3 serine protease of hepatitis c virus. Further details: species or system Hepacivirus hominis.
NS3, sequence (A3EZJ3 whole entry): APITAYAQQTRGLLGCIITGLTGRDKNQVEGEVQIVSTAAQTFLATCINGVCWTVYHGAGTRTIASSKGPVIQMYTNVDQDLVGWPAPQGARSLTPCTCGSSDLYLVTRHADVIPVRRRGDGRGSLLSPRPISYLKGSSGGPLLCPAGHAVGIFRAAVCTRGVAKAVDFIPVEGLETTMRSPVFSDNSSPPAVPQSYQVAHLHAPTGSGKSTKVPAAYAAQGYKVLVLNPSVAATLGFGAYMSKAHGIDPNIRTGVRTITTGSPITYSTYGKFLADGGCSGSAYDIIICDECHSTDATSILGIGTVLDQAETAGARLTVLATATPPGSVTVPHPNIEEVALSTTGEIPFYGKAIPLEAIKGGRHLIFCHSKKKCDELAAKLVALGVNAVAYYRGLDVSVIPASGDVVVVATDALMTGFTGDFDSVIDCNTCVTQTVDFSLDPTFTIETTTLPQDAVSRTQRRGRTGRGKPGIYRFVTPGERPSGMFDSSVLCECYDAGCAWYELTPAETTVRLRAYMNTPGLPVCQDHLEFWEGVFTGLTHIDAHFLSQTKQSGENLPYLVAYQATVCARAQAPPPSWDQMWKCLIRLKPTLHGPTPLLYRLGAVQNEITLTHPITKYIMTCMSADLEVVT

Regarding `CCCC(NC(=O)[C@@H]1Cc2cccc(c2)/C=C/CCCCCC(=O)N[C@@H](C2CCCCC2)C(=O)N1)C(=O)C(=O)NCC(=O)N[C@H](C(=O)O)c1ccccc1` (stereo not given in full), affinity was put at a Ki of 84 nM. That is a double-digit nanomolar value.
The compound `CCCC(NC(=O)[C@@H]1Cc2cccc(c2)CCCCCCCC(=O)N[C@@H](C2CCCCC2)C(=O)N1)C(=O)C(=O)NCC(=O)N[C@H](C(=O)N(C)C)c1ccccc1` (stereo not given in full) ([Chg][Phe(3-(CH2)7CO)][X1]G[Phg]-NMe2; lactam N-2) registered a Ki of 110 nM. The Ki values of the last two compounds are within 1.5-fold of each other.
The value for `CCCC(NC(=O)[C@@H]1Cc2cccc(c2)CCCCCCCC(=O)N[C@@H](C2CCCCC2)C(=O)N1)C(=O)C(=O)NCC(=O)N[C@H](C(=O)OC(C)(C)C)c1ccccc1` (stereo not given in full) ([Chg][Phe(3-(CH2)7CO)][X1]G[Phg]-OtBu; lactam N-2) was 2300 nM; that for `CCCC(NC(=O)[C@@H]1Cc2cccc(c2)/C=C/CCCCCC(=O)N[C@@H](C2CCCCC2)C(=O)N1)C(=O)C(=O)NCC(=O)N[C@H](C(=O)OC(C)(C)C)c1ccccc1` (stereo not given in full) was 1200 nM.
In turn, `CCCC(NC(=O)[C@@H]1Cc2cccc(c2)/C=C/CCCCCC(=O)N[C@@H](C2CCCCC2)C(=O)N1)C(=O)C(=O)NCC(=O)N[C@H](C(=O)N(C)C)c1ccccc1` (stereo not given in full) displayed a Ki of 120 nM. Compared with the last compound, the Ki is about 10-fold lower.
